In patent US6017933A, “Mannich bases of conjugated styryl ketones” (University of Saskatchewan Technologies Inc., priority 1999, dated 2000):
In brackets after ≈: the same amount, converted by molar mass. Entries after “also recorded” stand apart in the source; their conditions may differ. Read-outs that look alike come from different tables or passages of the source.

Assays:
[1] = system: L1210 cells; assay: Cytotoxicity, murine L1210 leukemic cells; format: cell-based; conditions: Mus musculus, mean
[2] = system: CEM cells; assay: Cytotoxicity, CEM human T-lymphocytes; conditions: for IC50: Homo sapiens, CCRF-CEM, read-out: CEM cells IC50; for TIL1210 (CEM cells): IC50 T-lymphocytes (CEM)/IC50 L1210; for TIP388 (CEM cells): IC50 T-lymphocytes (CEM)/IC50 P388; for TIht (CEM cells): IC50 T-lymphocytes (CEM)/IC50 human tumors
[3] = system: P388 cells; assay: Cytotoxicity, murine P388 leukemic cells (P388 D1); conditions: for IC50: read-out: P388 cells IC50; for cytotoxicity compared with compound 9d: Table 3 screens
[4] = system: Molt 4/C8 cells; assay: Cytotoxicity, Molt 4/C8 human T-lymphocytes; conditions: for TIL1210 (Molt 4/C8 cells): IC50 T-lymphocytes (Molt 4/C8)/IC50 L1210; for TIP388 (Molt 4/C8 cells): IC50 T-lymphocytes (Molt 4/C8)/IC50 P388; for TIht (Molt 4/C8 cells): IC50 T-lymphocytes (Molt 4/C8)/IC50 human tumors; for IC50: read-out: Molt 4/C8 cells IC50
[5] = system: human tumors; assay: Cytotoxicity, human tumor cell line panel (approximately 55 lines); conditions: for IC50: read-out: human tumors IC50, mean graph midpoint, approximately 55 cell lines, hydrobromide salts used for 4a, 11a-e; for Selective toxicity towards leukemia / selective/preferential cytotoxicity towards colon cancer cells: human tumor screen
[6] = system: COLO 205; assay: COLO 205 human colon tumor xenograft in athymic mice; format: in vivo; conditions: COLO 205; 16.8 mg/kg
Procedure: (§1) The compounds were examined by the Developmental Therapeutics Program, National Cancer Institute, U.S.A. The murine P388 lymphocytic leukemia assay was conducted by a reported known method and the maximum ILS figures for 9d and 10a were 5 and 20% respectively using doses of 54 and 6.7 mg/kg respectively. An increase of 20% or more in the life spans is considered to be statistically significant. A reference drug 5-fluorouracil has an ILS of >35 using a dose of 20 mg/kg when given intraperitoneally for five days. Passage of human tumors in athymic mice was undertaken by a known method. No definitions of activity are available but as a general rule compounds causing a 60% reduction in tumor weights in one of these screens would be evaluated further.

[7] = system: P388 lymphocytic leukemia; assay: Murine P388 lymphocytic leukemia in vivo screen
Procedure: In order to evaluate whether these promising results could be translated into in vivo activity, two representative compounds 9d and 10a were chosen. […] These two compounds were examined in the murine P388 screen and against certain human tumors in athymic mice.
as §1

[8] = system: KM12; assay: KM12 human colon tumor xenograft in athymic mice; format: in vivo
Procedure: as §1

[9] = system: CAKI-1; assay: CAKI-1 human renal tumor xenograft in athymic mice; format: in vivo; conditions: 16.8 mg/kg
Procedure: as §1

[10] = system: Aspergillus fumigatus conidia; assay: Kill-curve experiment, Aspergillus fumigatus conidia; format: cell-based; conditions: Aspergillus fumigatus; 5 μm AMB or 5 μm ITZ, within 24 hr
Procedure: Kill-Curve Experiment: 5 ml conidial suspension each of the AMB-, and ITZ-susceptible (W73355) and the resistant (AB16.4 and ITZ70) isolates prepared in PYG broth (1×10^6 conidia/ml) was incubated at 35° C. in the presence of 5 μm of AMB or 5 μm ITZ or 50 μm Compound 9b. At various time intervals, 0.1 ml aliquots of the conidial suspension were removed, diluted appropriately to obtain 10^2 to 10^4 fold dilution, and 0.1 ml aliquots were spread in duplicate on PYG agar plates. […] Identical treatment of the conidial suspension in the absence of the drug was used as the growth control.

[11] = system: Aspergillus fumigatus; assay: MIC and MLC, Aspergillus fumigatus, broth macrodilution; conditions: Aspergillus fumigatus, 48 h
[12] = system: ITZ-resistant Aspergillus fumigatus; assay: MIC and MLC, ITZ-resistant Aspergillus fumigatus, broth macrodilution; conditions: 48 h
[13] = system: AMB-resistant Aspergillus fumigatus; assay: MIC and MLC, AMB-resistant Aspergillus fumigatus, broth macrodilution; conditions: 48 h

SMILES | IC50 [1] [µM] | IC50 [2] [µM] | TIL1210 (CEM cells) [2] | TIP388 (CEM cells) [2] | TIht (CEM cells) [2] | IC50 [3] [µM] | TIL1210 (Molt 4/C8 cells) [4] | TIP388 (Molt 4/C8 cells) [4] | TIht (Molt 4/C8 cells) [4] | IC50 [4] [µM] | IC50 [5] [µM] | also measured
CCN1CCC(O)(/C=C/c2ccccc2)C(C(=O)/C=C/c2ccccc2)C1 (centres unmarked) [Compound 9a] | 5.3 | 16.5 | 3.12 | 11.81 | 6.02 | 1.4 | 5.64 | 21.36 | 10.88 | 29.9 | 2.75 | –
CCN1CCC(O)(/C=C/c2ccc(OC)cc2)C(C(=O)/C=C/c2ccc(OC)cc2)C1 (centres unmarked) [Compound 9e] | 25.6 | 11.7 | 0.46 | 2.35 | 1.41 | 5 | 0.81 | 4.14 | 2.49 | 20.7 | 8.31 | Selective toxicity towards leukemia [5]: this property was also noted
CC[N+]1(C)CCC(O)(/C=C/c2ccccc2)C(C(=O)/C=C/c2ccccc2)C1 (centres unmarked) [Compound 10a] | – | – | – | – | – | 2.27 | – | – | – | – | 8.31 | % ILS [6]: 14%; percent reduction in median tumor weight [6]: 20%; maximum ILS / increase in life span, murine P388 ([7]; 6.7 mg/kg): 20%; activity in the murine P388 screen ([7]; in words): marginal potency; % T/C ([8]; 16.8 mg/kg): 45%; % ILS ([8]; 25 mg/kg): 5%; % ILS [9]: 6%; % T/C [9]: 43%; Selective toxicity towards leukemia [5]: Selective toxicity towards leukemia was observed; also recorded: preferential cytotoxicity to colon and leukemic cells respectively
CCN1CCC(O)(c2ccccc2)C(C(=O)c2ccccc2)C1 (centres unmarked) [Compound 11a] | 20.1 | 45.7 | 2.28 | 42.70 | 1.51 | 1.07 | 1.80 | 33.78 | 1.20 | 36.1 | 30.2 | –
CCN1CCC(O)(c2ccc(Cl)cc2)C(C(=O)c2ccc(Cl)cc2)C1 (centres unmarked) [Compound 11b] | 15.7 | 102 | 6.52 | 19.89 | 1.23 | 5.14 | 3.68 | 11.21 | 0.69 | 57.6 | 83.2 | –
CCN1CCC(O)(c2ccc(C)cc2)C(C(=O)c2ccc(C)cc2)C1 (centres unmarked) [Compound 11d] | 38.2 | 38.7 | 1.01 | 4.50 | 1.54 | 8.6 | 0.89 | 3.97 | 1.36 | 34.2 | 25.1 | –
CCN1CCC(O)(c2ccc(OC)cc2)C(C(=O)c2ccc(OC)cc2)C1 (centres unmarked) [Compound 11e] | 13.5 | 39.9 | 2.96 | 9.57 | 2.05 | 4.17 | 2.94 | 9.51 | 2.04 | 39.7 | 19.5 | –
CCN1CCC(O)(c2ccc(O)cc2)C(C(=O)c2ccc(O)cc2)C1 (centres unmarked) [Compound 11f] | 9.75 | 42.6 | 4.37 | 30.46 | 2.04 | 1.4 | 4.32 | 30.09 | 2.02 | 42.1 | 20.9 | –
CC[N+]1(C)CCC(O)(c2ccc(Cl)c(Cl)c2)C(C(=O)c2ccc(Cl)c(Cl)c2)C1 (centres unmarked) [Compound 12c] | 33.6 | 25.8 | 0.77 | 11.20 | 2.70 | 2.3 | 0.84 | 12.23 | 2.95 | 28.1 | 9.54 | –
CCN1CCC(O)(/C=C/c2cccc(C)c2)C(C(=O)/C=C/c2cccc(C)c2)C1 (centres unmarked) [Compound 13a] | 12.6 | 9.23 | 0.73 | 4.89 | 3.75 | 1.89 | 1.14 | 7.57 | 5.81 | 14.3 ± 9.1 | 2.46 | cytotoxicity compared with compound 9d [3]: comparable cytotoxicity to compound 9d; TI (murine leukemia cells vs T-lymphocytes; printed TIht) compared with compound d [4]: lower; TIht compared with compound 9d [4]: greater than compound 9d; selective/preferential cytotoxicity towards colon cancer cells [5]: neither 13a,b displayed selective toxicity for colon cancers
CCN1CCC(O)(/C=C/c2ccc(C)c(C)c2)C(C(=O)/C=C/c2ccc(C)c(C)c2)C1 (centres unmarked) [Compound 13b] | 20.9 | 30.8 | 1.47 | 11.89 | – | 2.59 | 0.67 | 5.41 | – | 14 ± 8.6 | – | cytotoxicity compared with compound 9d [3]: comparable cytotoxicity to compound 9d; TI (murine leukemia cells vs T-lymphocytes; printed TIht) compared with compound d [4]: lower; TIht compared with compound 9d [4]: greater than compound 9d; selective/preferential cytotoxicity towards colon cancer cells [5]: neither 13a,b displayed selective toxicity for colon cancers
CCC(C)n1ncn(-c2ccc(N3CCN(c4ccc(OCC5COC(Cn6cncn6)(c6ccc(Cl)cc6Cl)O5)cc4)CC3)cc2)c1=O (centres unmarked) [Itraconazole] | – | – | – | – | – | – | – | – | – | – | – | killing at 5 µM [10]: 85%; MIC ([11]; read-out: MIC Mean ± SD): 0.53 ± 0.16 µM (≈ 0.374 µg/mL); MIC ([11]; read-out: MIC Range): 0.18 to 0.72 µM (≈ 0.127 to 0.508 µg/mL); MIC ([12]; read-out: MIC Mean ± SD): 17.2 ± 5.83 µM (≈ 12.2 µg/mL); MIC ([12]; read-out: MIC Range): 5.19 to 20.8 µM (≈ 3.66 to 14.7 µg/mL); MIC ([13]; read-out: MIC Mean ± SD): 0.82 ± 0.35 µM (≈ 0.579 µg/mL); MIC ([13]; read-out: MIC Range): 0.32 to 1.29 µM (≈ 0.226 to 0.91 µg/mL)
